Assay results reported in PubChem BioAssay (NCI).
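Growth conditions: 96-well plates. Treatment: test compound, 48 hours, 5 concentrations. Analysis: linear interpolation between bracketing concentrations; unreached endpoints set to highest concentration. Here, GI50 denotes the concentration required for 50% inhibition of growth. TGI: total growth inhibition.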

What was measured:
Test in all cases: growth of human tumour cells (NCI), 48 h
K-562 leukemia = tested on: K-562 leukemia
OVCAR-3 ovarian = tested on: OVCAR-3 ovarian
HCT-116 colon = tested on: HCT-116 colon
SF-295 CNS = tested on: SF-295 CNS
HOP-62 NSCLC = tested on: HOP-62 NSCLC
NCI-H522 lung = tested on: NCI-H522 lung
EKVX NSCLC = tested on: EKVX NSCLC
MALME-3M melanoma = tested on: MALME-3M melanoma
CAKI-1 renal = tested on: CAKI-1 renal
OVCAR-4 ovarian = tested on: OVCAR-4 ovarian
BT-549 breast = tested on: BT-549 breast
SW-620 colon = tested on: SW-620 colon
HL-60(TB) leukemia = tested on: HL-60(TB) leukemia
SNB-75 CNS = tested on: SNB-75 CNS
A549 NSCLC = tested on: A549 NSCLC
MDA-MB-231 breast = tested on: MDA-MB-231 breast
PC-3 prostate = tested on: PC-3 prostate
MDA-MB-435 = tested on: MDA-MB-435
SN12C renal = tested on: SN12C renal
HS 578T breast = tested on: HS 578T breast
LOX IMVI melanoma = tested on: LOX IMVI melanoma
HCC-2998 colon = tested on: HCC-2998 colon
HT29 colon = tested on: HT29 colon
OVCAR-5 ovarian = tested on: OVCAR-5 ovarian
MOLT-4 leukemia = tested on: MOLT-4 leukemia
NCI-H23 lung = tested on: NCI-H23 lung
T-47D breast = tested on: T-47D breast
HCT-15 colon = tested on: HCT-15 colon
UACC-257 melanoma = tested on: UACC-257 melanoma
IGROV1 ovarian = tested on: IGROV1 ovarian
SK-MEL-5 melanoma = tested on: SK-MEL-5 melanoma
NCI-H460 lung = tested on: NCI-H460 lung
KM12 colon = tested on: KM12 colon
RXF 393 renal = tested on: RXF 393 renal
M14 melanoma = tested on: M14 melanoma
NCI-H226 lung = tested on: NCI-H226 lung
SK-MEL-2 melanoma = tested on: SK-MEL-2 melanoma
SNB-19 CNS = tested on: SNB-19 CNS
UO-31 renal = tested on: UO-31 renal
786-0 renal = tested on: 786-0 renal
SR leukemia = tested on: SR leukemia
SK-OV-3 ovarian = tested on: SK-OV-3 ovarian
DU-145 prostate = tested on: DU-145 prostate
MDA-MB-468 breast = tested on: MDA-MB-468 breast
TK-10 renal = tested on: TK-10 renal
HOP-92 NSCLC = tested on: HOP-92 NSCLC
MCF7 breast = tested on: MCF7 breast
ACHN renal = tested on: ACHN renal
UACC-62 melanoma = tested on: UACC-62 melanoma
U251 CNS = tested on: U251 CNS
SF-268 CNS = tested on: SF-268 CNS
A498 renal = tested on: A498 renal
OVCAR-8 ovarian = tested on: OVCAR-8 ovarian
COLO 205 colon = tested on: COLO 205 colon
SK-MEL-28 melanoma = tested on: SK-MEL-28 melanoma
SF-539 CNS = tested on: SF-539 CNS
CCRF-CEM leukemia = tested on: CCRF-CEM leukemia
RPMI-8226 leukemia = tested on: RPMI-8226 leukemia

`O=C(c1ccc(Cl)cc1)C1[C@H](c2ccccc2Br)[C@@H](c2ccccc2)NC12C(=O)Nc1ccc(Cl)cc12` (stereo partly specified) gave a GI50 (K-562 leukemia) of 18.5 µM, a TGI (K-562 leukemia) of 52.8 µM and a GI50 (OVCAR-3 ovarian) of 10.6 µM. It also gave a TGI (OVCAR-3 ovarian) of 22.7 µM, a GI50 (HCT-116 colon) of 9 µM and a TGI (HCT-116 colon) of 17.5 µM. It also gave a GI50 (SF-295 CNS) of 9.14 µM, a TGI (SF-295 CNS) of 18.9 µM and a GI50 (HOP-62 NSCLC) of 8.65 µM. For the same compound, the TGI (HOP-62 NSCLC) was 16.4 µM, the GI50 (NCI-H522 lung) was 8.67 µM and the TGI (NCI-H522 lung) was 16.6 µM. For the same compound, the GI50 (EKVX NSCLC) was 10.6 µM, the TGI (EKVX NSCLC) was 26 µM and the GI50 (MALME-3M melanoma) was 8.67 µM. For the same compound, the TGI (MALME-3M melanoma) was 16 µM, the GI50 (CAKI-1 renal) was 8.96 µM and the TGI (CAKI-1 renal) was 17.4 µM. For the same compound, the GI50 (OVCAR-4 ovarian) was 11.8 µM, the TGI (OVCAR-4 ovarian) was 28.5 µM and the GI50 (BT-549 breast) was 7.87 µM. For the same compound, the TGI (BT-549 breast) was 15.7 µM, the GI50 (SW-620 colon) was 9.58 µM and the TGI (SW-620 colon) was 19.2 µM. For the same compound, the GI50 (HL-60(TB) leukemia) was 13.2 µM, the TGI (HL-60(TB) leukemia) was 36.7 µM and the GI50 (SNB-75 CNS) was 8.31 µM. The TGI (SNB-75 CNS) was 26.9 µM, the GI50 (A549 NSCLC) was 9.83 µM and the TGI (A549 NSCLC) was 20.2 µM. For the same compound, the GI50 (MDA-MB-231 breast) was 8.98 µM, the TGI (MDA-MB-231 breast) was 16.5 µM and the GI50 (PC-3 prostate) was 9.87 µM. It also gave a TGI (PC-3 prostate) of 20.1 µM, a GI50 (MDA-MB-435) of 10.4 µM and a TGI (MDA-MB-435) of 20.7 µM. It also gave a GI50 (SN12C renal) of 9.05 µM, a TGI (SN12C renal) of 16.4 µM and a GI50 (HS 578T breast) of 11 µM. It also gave a TGI (HS 578T breast) of 27.1 µM, a GI50 (LOX IMVI melanoma) of 9.69 µM and a TGI (LOX IMVI melanoma) of 19 µM. For the same compound, the GI50 (HCC-2998 colon) was 9.28 µM, the TGI (HCC-2998 colon) was 17.4 µM and the GI50 (HT29 colon) was 9.35 µM. For the same compound, the TGI (HT29 colon) was 18.5 µM, the GI50 (OVCAR-5 ovarian) was 8.61 µM and the TGI (OVCAR-5 ovarian) was 16 µM. It also gave a GI50 (MOLT-4 leukemia) of 16 µM, a TGI (MOLT-4 leukemia) of 52.8 µM and a GI50 (NCI-H23 lung) of 10.1 µM. For the same compound, the TGI (NCI-H23 lung) was 19.4 µM, the GI50 (T-47D breast) was 9.06 µM and the TGI (T-47D breast) was 18.2 µM. It also gave a GI50 (HCT-15 colon) of 10.2 µM, a TGI (HCT-15 colon) of 20 µM and a GI50 (UACC-257 melanoma) of 8.88 µM. For the same compound, the TGI (UACC-257 melanoma) was 16.7 µM, the GI50 (IGROV1 ovarian) was 9.73 µM and the TGI (IGROV1 ovarian) was 19.1 µM. It also gave a GI50 (SK-MEL-5 melanoma) of 9.44 µM, a TGI (SK-MEL-5 melanoma) of 16.9 µM and a GI50 (NCI-H460 lung) of 9.54 µM. The TGI (NCI-H460 lung) was 18.9 µM, the GI50 (KM12 colon) was 11.5 µM and the TGI (KM12 colon) was 25.2 µM. It also gave a GI50 (RXF 393 renal) of 8.4 µM, a TGI (RXF 393 renal) of 16 µM and a GI50 (M14 melanoma) of 9.65 µM. The TGI (M14 melanoma) was 18.3 µM, the GI50 (NCI-H226 lung) was 8.69 µM and the TGI (NCI-H226 lung) was 17.2 µM. For the same compound, the GI50 (SK-MEL-2 melanoma) was 9.22 µM, the TGI (SK-MEL-2 melanoma) was 16.9 µM and the GI50 (SNB-19 CNS) was 10.3 µM. For the same compound, the TGI (SNB-19 CNS) was 23.6 µM, the GI50 (UO-31 renal) was 8.01 µM and the TGI (UO-31 renal) was 15.1 µM. It also gave a GI50 (786-0 renal) of 9.38 µM, a TGI (786-0 renal) of 18.8 µM and a GI50 (SR leukemia) of 13.5 µM. The TGI (SR leukemia) was 32 µM, the GI50 (SK-OV-3 ovarian) was 12.4 µM and the TGI (SK-OV-3 ovarian) was 34.4 µM. The GI50 (DU-145 prostate) was 11.1 µM, the TGI (DU-145 prostate) was 22.4 µM and the GI50 (MDA-MB-468 breast) was 9.09 µM. It also gave a TGI (MDA-MB-468 breast) of 17.3 µM, a GI50 (TK-10 renal) of 8.71 µM and a TGI (TK-10 renal) of 17 µM. The GI50 (HOP-92 NSCLC) was 8.37 µM, the TGI (HOP-92 NSCLC) was 16.3 µM and the GI50 (MCF7 breast) was 11.6 µM. For the same compound, the TGI (MCF7 breast) was 27.9 µM, the GI50 (ACHN renal) was 9.94 µM and the TGI (ACHN renal) was 18.9 µM. The GI50 (UACC-62 melanoma) was 8.63 µM, the TGI (UACC-62 melanoma) was 16 µM and the GI50 (U251 CNS) was 9.17 µM. It also gave a TGI (U251 CNS) of 16.8 µM, a GI50 (SF-268 CNS) of 10.8 µM and a TGI (SF-268 CNS) of 25.4 µM. For the same compound, the GI50 (A498 renal) was 9.4 µM, the TGI (A498 renal) was 19.3 µM and the GI50 (OVCAR-8 ovarian) was 9.6 µM. The TGI (OVCAR-8 ovarian) was 18 µM, the GI50 (COLO 205 colon) was 9.34 µM and the TGI (COLO 205 colon) was 17.3 µM. For the same compound, the GI50 (SK-MEL-28 melanoma) was 8.66 µM, the TGI (SK-MEL-28 melanoma) was 16 µM and the GI50 (SF-539 CNS) was 9.17 µM. For the same compound, the TGI (SF-539 CNS) was 17 µM, the GI50 (CCRF-CEM leukemia) was 13.6 µM and the TGI (CCRF-CEM leukemia) was 35.1 µM. For the same compound, the GI50 (RPMI-8226 leukemia) was 15.9 µM and the TGI (RPMI-8226 leukemia) was 48.8 µM.
